Values quoted from earlier work, collected in US8529952B2 (Ethypharm, priority 1999, dated 2013).

- mean concentration in the plasma (dose of 300 mg of fenofibrate per day): ~15 micrograms/ml
- time to maximum concentration in the plasma after ingestion (on average): five
- half-life for elimination from the plasma (plasma): ~20 h
Compound: CC(C)(Oc1ccc(C(=O)c2ccc(Cl)cc2)cc1)C(=O)O [fenofibric acid]
